Earlier results, collected in patent US8993486B2, “Ultra-high throughput screening methods to detect synergistic drug interactions” (Lankenau Institute for Medical Research Chemical Genomics …, priority 2010, dated 2015).

Tested on: diverse fungal pathogens

Molecule	fungicidal activity alone (low dosage)	synergy with ketoconazole (KTC) activity (checkerboard assay, diverse fungal pathogens)
CC(=O)N1CCN(c2ccc(OCC3COC(Cn4ccnc4)(c4ccc(Cl)cc4Cl)O3)cc2)CC1 (centres unmarked) [ketoconazole]	little detectable fungicidal activity	–
beauvericin	–	dramatically synergized KTC activity
